# Values quoted from earlier work, collected in patent publication US10335381B2, “Stabilized formulation of triamcinolone acetonide” (University of Mississippi, priority 2006, dated 2019).
# Conditions: Gupta 1983
compound,measurement,value
"CC1(C)O[C@@H]2C[C@H]3[C@@H]4CCC5=CC(=O)C=C[C@]5(C)[C@@]4(F)[C@@H](O)C[C@]3(C)[C@]2(C(=O)CO)O1 [TAA, triamcinolone acetonide]",optimum pH for TAA stability in aqueous solution,about 3.4
